Data published in PubChem BioAssay AID1963970 (Molecular Pharmacology Branch, DTP, NCI, 2024).
Several values for one entry are separate records, joined by “and”; a condition that tells them apart may be missing. Identical values can stand only once.

Tested on: 931267-113-T-J1-PDC multicell spheroid viability
Test: Anticancer human tumor 931267-113-T-J1-PDC patient-derived colon adenocarcinoma cell line growth inhibition [PI3K]
Settings: for viability, T/C: stronger effect = lower value
Method in brief: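 Targeted small molecules plus PI3K inhibitors, half-log dose series from Cmax (default top 10 microM), were applied to heterotypic spheroids of cancer cells with HUVEC and MSCs. Viability indicated growth inhibition.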
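Further: viability read 7 days after compound addition.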

For `CNC(=O)c1ccc(N2C(=S)N(c3ccc(C#N)c(C(F)(F)F)c3)C(=O)C2(C)C)cc1F` + CC(Nc1ncnc2nc[nH]c12)c1cc2cccc(Cl)c2c(=O)n1-c1ccccc1, the IC50 (curve of first compound, second compound 0.0316 µM) was over 10 µM, the IC50 (curve of first compound, second compound 0.1 µM) was over 10 µM and the IC50 (curve of first compound, second compound 0.316 µM) was over 10 µM. It also gave an IC50 (curve of first compound, second compound 1 µM) of over 10 µM, an IC50 (curve of first compound, second compound 3.16 µM) of over 10 µM and an IC50 (curve of first compound, second compound 10 µM) of over 10 µM. For the same compound, the viability, T/C (second compound 0.0316 µM, first compound 0.0316 µM) was 107%, the viability, T/C (second compound 0.0316 µM, first compound 0.1 µM) was 96.7% and the viability, T/C (second compound 0.0316 µM, first compound 0.316 µM) was 113%. The viability, T/C (second compound 0.0316 µM, first compound 1 µM) was 97.2%, the viability, T/C (second compound 0.0316 µM, first compound 3.16 µM) was 111% and the viability, T/C (second compound 0.0316 µM, first compound 10 µM) was 109%. It also gave a viability, T/C (second compound 0.1 µM, first compound 0.0316 µM) of 108%, a viability, T/C (second compound 0.1 µM, first compound 0.1 µM) of 101% and a viability, T/C (second compound 0.1 µM, first compound 0.316 µM) of 104%. It also gave a viability, T/C (second compound 0.1 µM, first compound 1 µM) of 104%, a viability, T/C (second compound 0.1 µM, first compound 3.16 µM) of 101% and a viability, T/C (second compound 0.1 µM, first compound 10 µM) of 103%. For the same compound, the viability, T/C (second compound 0.316 µM, first compound 0.0316 µM) was 103%, the viability, T/C (second compound 0.316 µM, first compound 0.1 µM) was 104% and the viability, T/C (second compound 0.316 µM, first compound 0.316 µM) was 100%. For the same compound, the viability, T/C (second compound 0.316 µM, first compound 1 µM) was 107%, the viability, T/C (second compound 0.316 µM, first compound 3.16 µM) was 115% and the viability, T/C (second compound 0.316 µM, first compound 10 µM) was 103%. The viability, T/C (second compound 1 µM, first compound 0.0316 µM) was 102%, the viability, T/C (second compound 1 µM, first compound 0.1 µM) was 103% and the viability, T/C (second compound 1 µM, first compound 0.316 µM) was 96.6%. The viability, T/C (second compound 1 µM, first compound 1 µM) was 102%, the viability, T/C (second compound 1 µM, first compound 3.16 µM) was 117% and the viability, T/C (second compound 1 µM, first compound 10 µM) was 109%. The viability, T/C (second compound 3.16 µM, first compound 0.0316 µM) was 100%, the viability, T/C (second compound 3.16 µM, first compound 0.1 µM) was 98.9% and the viability, T/C (second compound 3.16 µM, first compound 0.316 µM) was 92.4%. It also gave a viability, T/C (second compound 3.16 µM, first compound 1 µM) of 103%, a viability, T/C (second compound 3.16 µM, first compound 3.16 µM) of 96.5% and a viability, T/C (second compound 3.16 µM, first compound 10 µM) of 104%. It also gave a viability, T/C (second compound 10 µM, first compound 0.0316 µM) of 99%, a viability, T/C (second compound 10 µM, first compound 0.1 µM) of 97.9% and a viability, T/C (second compound 10 µM, first compound 0.316 µM) of 93.9%. It also gave a viability, T/C (second compound 10 µM, first compound 1 µM) of 96.1%, a viability, T/C (second compound 10 µM, first compound 3.16 µM) of 102% and a viability, T/C (second compound 10 µM, first compound 10 µM) of 84.4%.

With `C[C@@H](NC(=O)c1ncnc(N)c1Cl)c1ncc(C(=O)Nc2cc(C(F)(F)F)c(Cl)cn2)s1` the viability, T/C (compound 0.0316 µM) was 117% [middle of 4 runs], the viability, T/C (compound 0.1 µM) was 112% [middle of 4 runs] and the viability, T/C (compound 0.316 µM) was 111% [middle of 4 runs]. For the same compound, the viability, T/C (compound 1 µM) was 114% [middle of 4 runs], the viability, T/C (compound 3.16 µM) was 102% (2×) and 112% and 103% and the viability, T/C (compound 10 µM) was 78% [middle of 4 runs]. The IC50 (curve of compound) was over 10 µM.

`CC(Cn1ccc(-c2ccc(C#N)c(Cl)c2)n1)NC(=O)c1cc(C(C)O)[nH]n1` (stereo not drawn) was tested, and the viability, T/C (compound 0.0316 µM) was 109% and 95.2% and 110%, the viability, T/C (compound 0.1 µM) was 107% and 94.8% and 102% and the viability, T/C (compound 0.316 µM) was 109% and 108% and 101%. The viability, T/C (compound 1 µM) was 117% and 108% and 106%, the viability, T/C (compound 3.16 µM) was 98.7% and 110% and 107% and the viability, T/C (compound 10 µM) was 103% and 102% and 108%. For the same compound, the IC50 (curve of compound) was over 10 µM.

`CCN1CCN(Cc2ccc(Nc3ncc(F)c(-c4cc(F)c5nc(C)n(C(C)C)c5c4)n3)nc2)CC1` was tested, and the viability, T/C (compound 0.00316 µM) was 101% [middle of 4 runs], the viability, T/C (compound 0.01 µM) was 105% (2×) and 103% and 99.8% and the viability, T/C (compound 0.0316 µM) was 103% [middle of 4 runs]. For the same compound, the viability, T/C (compound 0.1 µM) was 102% (2×) and 100% and 96.4%, the viability, T/C (compound 0.316 µM) was 96.2% [middle of 4 runs] and the viability, T/C (compound 1 µM) was 84.8% [middle of 4 runs]. It also gave an IC50 (curve of compound) of over 1 µM.
